Patent US20050004133A1, “Modulators of VR1 receptor” (priority 2003, published 2005)

Target: human VR1 (Homo sapiens, UniProt Q8NER1)
Conditions: 50 μM capsazepine; HEK-293 clones expressing hVR1; any concentration of capsaicin

Chain of human VR1 (Q8NER1 whole entry): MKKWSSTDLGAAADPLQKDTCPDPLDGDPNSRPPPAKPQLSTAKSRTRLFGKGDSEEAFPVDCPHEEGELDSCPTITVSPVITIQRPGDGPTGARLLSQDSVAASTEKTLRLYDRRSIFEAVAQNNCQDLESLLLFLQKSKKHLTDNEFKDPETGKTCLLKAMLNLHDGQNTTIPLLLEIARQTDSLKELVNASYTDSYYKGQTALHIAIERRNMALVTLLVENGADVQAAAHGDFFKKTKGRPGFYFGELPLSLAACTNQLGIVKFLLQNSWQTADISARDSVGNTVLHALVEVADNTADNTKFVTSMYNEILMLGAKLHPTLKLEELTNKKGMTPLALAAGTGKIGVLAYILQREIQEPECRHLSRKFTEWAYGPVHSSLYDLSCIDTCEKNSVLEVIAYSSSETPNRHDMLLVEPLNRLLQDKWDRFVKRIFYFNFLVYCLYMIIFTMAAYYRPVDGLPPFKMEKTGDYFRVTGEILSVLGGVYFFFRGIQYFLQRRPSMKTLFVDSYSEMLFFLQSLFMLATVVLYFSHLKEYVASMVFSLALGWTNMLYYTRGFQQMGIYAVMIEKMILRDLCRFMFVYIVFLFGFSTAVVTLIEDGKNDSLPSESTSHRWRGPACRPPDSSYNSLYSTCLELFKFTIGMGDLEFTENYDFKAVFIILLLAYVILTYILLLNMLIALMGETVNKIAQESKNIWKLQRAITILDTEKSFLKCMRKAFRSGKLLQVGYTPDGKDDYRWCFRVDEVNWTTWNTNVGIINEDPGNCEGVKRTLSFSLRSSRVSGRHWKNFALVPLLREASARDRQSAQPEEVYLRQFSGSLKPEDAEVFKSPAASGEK

SMILES: Oc1cc2c(cc1O)CN(C(=S)NCCc1ccc(Cl)cc1)CCC2 [capsazepine]
- response to capsaicin in the presence of capsazepine: failed to respond to any concentration of capsaicin
